# From EP4617278A1, “NUCLEOTIDE ANALOG, AND COMPOSITION AND USE THEREOF” (priority 2022, dated 2024)
# Test system: RSV A2 virus
# Test: RSV CPE assay
# Conditions: human respiratory syncytial virus, HEp-2, 120 h, read-out: RSV A2 (Hep-2 cell) EC50
row,Compound,EC50
1,"COC(C)(C)COC(=O)[C@H](Cc1ccccc1)N[P@](=O)(OC[C@H]1O[C@@](C#N)(c2ccc3c(N)ncnn23)[C@H](OC(=O)C(C)C)[C@@H]1OC(=O)C(C)C)Oc1ccccc1 [Compound 64b, (2R,3R,4R,5R)-2-(4-aminopyrrolo[2,1-f][1,2,4]triazin-7-yl)-2-cyano-5-((((S)-(((S)-1-(2-methoxy-2-methylpropoxy)-1-oxo-3-phenylpropan-2-yl)amino)(phenoxy)phosphoryl)oxy)methyl)tetrahydrofuran-3,4-diyl bis(2-methylpropionate)]",< 100 nM

# Same assay, conditions: read-out: RSV A2 (Hep-2 cell) EC50; HEp-2 cells, RSV A2 virus, 5 days, CCK8
row,Compound,EC50
1,"(2R,3R,4R,5R)-2-(4-aminopyrrolo[2,1-f][1,2,4]triazin-7-yl)-2-cyano-5-((((R)-(((S)-1,4-bicyclopentyloxy-1,4-dioxobutan-2-yl)amino)(phenoxy)phosphoryl)oxy)methyl)tetrahydrofuran-3,4-diyl diacetate [Compound 58a]",200 to 500 nM
2,"(2R,3R,4R,5R)-2-(4-aminopyrrolo[2,1-f][1,2,4]triazin-7-yl)-2-cyano-5-((((R)-(((S)-1,4-bicyclopentyloxy-1,4-dioxobutan-2-yl)amino)(phenoxy)phosphoryl)oxy)methyl)tetrahydrofuran-3,4-diyl dipropionate [Compound 59a]",200 to 500 nM
3,"(2R,3R,4R,5R)-2-(4-aminopyrrolo[2,1-f][1,2,4]triazin-7-yl)-2-cyano-5-((((R)-(((S)-1,4-dicyclobutoxy-1,4-dioxobutan-2-yl)amino)(phenoxy)phosphoryl)oxy)methyl)tetrahydrofuran-3,4-diyl diacetate [Compound 55a]",100 to 200 nM
4,"(2R,3R,4R,5R)-2-(4-aminopyrrolo[2,1-f][1,2,4]triazin-7-yl)-2-cyano-5-((((R)-(((S)-1,4-dicyclobutoxy-1,4-dioxobutan-2-yl)amino)(phenoxy)phosphoryl)oxy)methyl)tetrahydrofuran-3,4-diyl dipropionate [Compound 56a]",200 to 500 nM
5,"(2R,3R,4R,5R)-2-(4-aminopyrrolo[2,1-f][1,2,4]triazin-7-yl)-2-cyano-5-((((R)-(((S)-1-(2-ethylbutoxy)-1-oxopropan-2-yl)amino)(((isopropoxycarbonyl)oxy)methoxy)phosphoryl)oxy)methyl)tetrahydrofuran-3,4-diyl diacetate [Compound 5a]",200 to 500 nM
6,"(2R,3R,4R,5R)-2-(4-aminopyrrolo[2,1-f][1,2,4]triazin-7-yl)-2-cyano-5-((((R)-(((S)-1-isopropoxy-1-oxopropan-2-yl)amino)(((isopropoxycarbonyl)oxy)methoxy)phosphoryl)oxy)methyl)tetrahydrofuran-3,4-diyl diacetate [Compound 1a]",100 to 200 nM
7,"(2R,3R,4R,5R)-2-(4-aminopyrrolo[2,1-f][1,2,4]triazin-7-yl)-2-cyano-5-((((S)-(((S)-1,4-bicyclopentyloxy-1,4-dioxobutan-2-yl)amino)(phenoxy)phosphoryl)oxy)methyl)tetrahydrofuran-3,4-diyl diacetate [Compound 58b]",< 100 nM
8,"(2R,3R,4R,5R)-2-(4-aminopyrrolo[2,1-f][1,2,4]triazin-7-yl)-2-cyano-5-((((S)-(((S)-1,4-bicyclopentyloxy-1,4-dioxobutan-2-yl)amino)(phenoxy)phosphoryl)oxy)methyl)tetrahydrofuran-3,4-diyl dipropionate [Compound 59b]",< 100 nM
9,"(2R,3R,4R,5R)-2-(4-aminopyrrolo[2,1-f][1,2,4]triazin-7-yl)-2-cyano-5-((((S)-(((S)-1,4-dicyclobutoxy-1,4-dioxobutan-2-yl)amino)(phenoxy)phosphoryl)oxy)methyl)tetrahydrofuran-3,4-diyl diacetate [Compound 55b]",100 to 200 nM
10,"(2R,3R,4R,5R)-2-(4-aminopyrrolo[2,1-f][1,2,4]triazin-7-yl)-2-cyano-5-((((S)-(((S)-1,4-dicyclobutoxy-1,4-dioxobutan-2-yl)amino)(phenoxy)phosphoryl)oxy)methyl)tetrahydrofuran-3,4-diyl dipropionate [Compound 56b]",100 to 200 nM
11,"(2R,3R,4R,5R)-2-(4-aminopyrrolo[2,1-f][1,2,4]triazin-7-yl)-2-cyano-5-((((S)-(((S)-1-(2-ethylbutoxy)-1-oxopropan-2-yl)amino)(((isopropoxycarbonyl)oxy)methoxy)phosphoryl)oxy)methyl)tetrahydrofuran-3,4-diyl diacetate [Compound 5b]",100 to 200 nM
12,"(2R,3R,4R,5R)-2-(4-aminopyrrolo[2,1-f][1,2,4]triazin-7-yl)-2-cyano-5-((((S)-(((S)-1-isopropoxy-1-oxopropan-2-yl)amino)(((isopropoxycarbonyl)oxy)methoxy)phosphoryl)oxy)methyl)tetrahydrofuran-3,4-diyl diacetate [Compound 1b]",100 to 200 nM
13,"(2R,3R,4R,5R)-2-(4-aminopyrrolo[2,1-f][1,2,4]triazin-7-yl)-5-((((bis(((isopropoxycarbonyl)oxy)methoxy))phosphoryl)oxy)methyl)-2-cyanotetrahydrofuran-3,4-diyldiisopropyl bis(carbonate) [Compound 28]",> 1000 nM
